Laboratory results as given in patent US20230414699A1, “TREATMENT OF DERMATOLOGICAL CONDITIONS” (MC2 Therapeutics Ltd, priority 2020, published 2023).
Counter-ions that a name gives are not always drawn. Peptide text beside a SMILES is read from it.

Tested on: Bovine Serum Albumin (BSA)
Assay: In vitro protein carbamylation assay (14C-potassium cyanate, BSA)
Type: biochemical
Details: 10 mM nucleophile, 75 μM BSA, 25 μM 14C-potassium cyanate, 37° C., 72 hours, n=3
Description: 200 μL of a 0.5% BSA solution, 200 μL of test solution and 100 μL of a 5 μCi/mL ^14C-Potassium Cyanate solution was mixed in an Eppendorf tube (corresponding to a final concentration of 75 μM BSA, 25 μM ^14C-Potassium Cyanate, and 10 mM nucleophile). Samples run in triplicates (n=3). The Eppendorf tubes were incubated at 37° C. for 72 hours (if not otherwise stated).
After incubation a volume of 100 μL of each sample was transferred to a new Eppendorf tube containing 100 μL of a 10% trichloroacetic acid (TCA) and kept at 4° C. overnight (for precipitation of BSA). Subsequently, the precipitated BSA was separated from the buffer by centrifugation (10000 rpm, 30 seconds). The supernatant was removed and the BSA pellet was resuspended in 200 μL of a 10% solution of cold TCA (4° C.). The pellet was recovered by centrifugation (10000 rpm, 30 seconds) and supernatant was discarded. The BSA pellet was resuspended in 100 μL purified water (MilliQ) and transferred to a scintillation vial. The Eppendorf tube (previously containing the BSA pellet) was rinsed with an additional 100 μL purified water which al was transferred to the relevant scintillation vial.

Molecule	Degree of carbamylation (% relative to HBSS control)
Val-Pro	22.1%
NCCNCC(=O)O [N-β-aminoethyl-Gly]	29.7%
CC1=NCC[C@@H](C(=O)O)N1 [Ectoine, reference compound]	97.9%
Arg	52.4%
CC(=O)N[C@@H](CS)C(=O)O [Acetylcysteine, reference compound]	14.3%
COC(=O)[C@H](Cc1ccccc1)NC(=O)[C@@H](N)CC(=O)O [Aspartame] (HELM PEPTIDE1{D.F.[CO[*:1]]}$$$$V2.0)	30.4%
Ile-Pro	41.4%
Gly-His	22.6%
Ala-Gln	34.8%
N[C@@H](Cc1c[nH]cn1)C(=O)O [Histidine]	61.1%
Val-Tyr	28.9%
Gly-Ser	33.1%
Tetraglycine	24.9%
Tyr-Ala	26.1%
CC(C)C[C@H](NC(=O)[C@@H](O)[C@H](N)Cc1ccccc1)C(=O)O [Bestatin, reference compound]	53.4%
Ser-Pro	26.4%
Cl.N=C(N)NCCC[C@H](N)C(=O)O [Arg*HCl]	66.1%
Ala-Glu	20.4%
Pro-Ser	41.9%
Tyr-Pro	32.8%
Gly-Gly	26.6%
Lys-Pro	28.6%

Same assay, conditions: 10 mM nucleophile, 37° C., 72 hours; dissolved in HBSS:DMSO 90:10; neutralized by equimolar NaOH before use

Molecule	Degree of carbamylation (% relative to HBSS control)
CC(N)C12CC3CC(CC(C3)C1)C2.Cl (stereo not drawn) [Rimantadine*HCl, reference compound]	78.5%
CN(C)C(=N)NC(=N)N.Cl [Metformin*HCl, reference compound]	71.4%

Same assay, conditions: 10 mM nucleophile, 37° C., 72 hours; neutralized by equimolar NaOH before use

Molecule	Degree of carbamylation (% relative to HBSS control)
Sitagliptine phosphate [reference compound]	48.6%
NNCCc1ccccc1 [Phenelzine sulfate, reference compound]	9.8%
N=C(N)c1ccc(OCCCCCOc2ccc(C(=N)N)cc2)cc1 [Pentamidine diisethionate, reference compound]	43.1%

Same assay, conditions: text statement referring to Example 3

Molecule	degree of carbamylation (%) relative to HBSS control, in words
CC1=NCC[C@@H](C(=O)O)N1 [Ectoine, reference compound]	high degree of carbamylation

Tested on: reconstructed human skin (Epiderm Full Thickness)
Assay: In vitro protein carbamylation assay using reconstructed human skin (Protein Carbamylation Sandwich ELISA)
Type: cell-based
Details: 0.5 M urea:isocyanate 99:1 + 200 μL 2% nucleophile solution, apical, six days
Description: Epiderm Full Thickness (Epiderm FT, MatTek Corp., USA) tissues were transferred to B6 trays containing EpiDermTM Full Thickness Maintenance Medium (MatTek Corp., USA) immediately upon arrival and incubated for 24 hours at 37° C. and 5% CO2. […] At day 6, the treatment solutions and the maintenance medium were removed from the tissues, and pre-warmed phosphate buffered saline (DPBS, Sigma-Aldrich) was added and removed twice before the tissues were submitted for ELISA and histological analysis. The 7 different conditions were tested on four different tissues where one tissue from each treatment was submitted for ELISA and the remaining three tissues were submitted for histological analysis. Overview of Treatment Solutions Added to the Apical Compartment • 1. […] The concentration used was selected to resemble the approximate concentration of urea in urine (Liu et. al. 2012). Experimental procedure for protein extraction was modified from Ross-Hansen et al., 2014 and Palosuo et al., 1998. The cell covered […] filters (Mattek) were cut from the plastic insertion ring, and the cell layer gently peeled of the membrane with a scalpel. […] Samples were analysed undiluted in a Protein Carbamylation Sandwich ELISA (Cell Biolabs Inc cat no STA-877).

Molecule	inhibition of protein carbamylation (ELISA, FIG. 2)
N[C@@H](CC(=O)N1CCn2c(nnc2C(F)(F)F)C1)Cc1cc(F)c(F)cc1F [Sitagliptin]	did not show complete inhibition

Tested on: reconstructed human skin (EpiDermFT)
Assay: Histological analysis (H&E) of reconstructed human skin samples treated with urea:isocyanate
Type: cell-based
Details: 0.5 M urea:isocyanate 99:1 + 200 μL 2% nucleophile solution, six days; vs control treated with only urea:isocyanate
Description: Epiderm Full Thickness (Epiderm FT, MatTek Corp., USA) tissues were transferred to B6 trays containing EpiDerm™ Full Thickness Maintenance Medium (MatTek Corp., USA) immediately upon arrival and incubated for 24 hours at 37° C. and 5% CO2. […] At day 6, the treatment solutions and the maintenance medium were removed from the tissues, and pre-warmed phosphate buffered saline (DPBS, Sigma-Aldrich) was added and removed twice before the tissues were submitted for ELISA and histological analysis. The 7 different conditions were tested on four different tissues where one tissue from each treatment was submitted for ELISA and the remaining three tissues were submitted for histological analysis. Overview of Treatment Solutions Added to the Apical Compartment • 1. […] EpiDermFT membranes were app. 1 cm in diameter and were fixed in formalin for 5 days. Membranes were cut into halves using a scissors and placed into histogel matrix aiming at having the cut surface as the tissue sectioning surface. The samples were dehydrated in alcohol and xylene and embedded in paraffin using a standard paraffin embedding procedure. Sections were cut at 4 μm for Hematoxylin and Eosin (H&E) staining and immunohistochemistry (IHC). Images were acquired using a 20× objective with a Zeiss AxioScan. Representative areas were selected for presentation. […]

Molecule	attachment of epidermis / reduction of skin damage (H&E, FIG. 3)
N[C@@H](CC(=O)N1CCn2c(nnc2C(F)(F)F)C1)Cc1cc(F)c(F)cc1F [Sitagliptin]	least effect
